We go through three compounds from patent US20020099241A1, “Alpha-sulfin-and alpha-sulfonamino acid amides” (priority 1998, published 2002).

The subject of one data set is Plasmopara viticola. Description: D-1: Action against Plasmopara viticola on vines (residual-protective and residual-curative). The format is in vivo. The note with it: vine seedlings, spray mixture 0.02% active ingredient, evaluated 6 days after infection; protective/curative not distinguished. The method, then:
D-1: Action Against Plasmopara viticola on Vines a) Residual-Protective Action
Vine seedlings are sprayed at the 4- to 5-leaf stage with a spray mixture (0.02% active ingredient) prepared from a wettable powder formulation of the test compound. After 24 hours, the treated plants are infected with a sporangia suspension of the fungus. Fungus infestation is evaluated after incubation for 6 days at 95-100% relative humidity and 20° C. […]
b) Residual-Curative Action
Vine seedlings are infected at the 4- to 5-leaf stage with a sporangia suspension of the fungus. After incubation for 24 hours in a humidity chamber at 95-100% relative humidity and 20° C., the infected plants are dried and sprayed with a spray mixture (0.02% active ingredient) prepared from a wettable powder formulation of the test compound. After the spray coating has dried, the treated plants are placed in the humidity chamber again. Fungus infestation is evaluated 6 days after infection.

For data set [1], the system named is Phytophthora. Description: D-3: Action against Phytophthora on potato plants (residual-protective and systemic). The format is in vivo. The settings on record: potato plants (Bintje variety), spray or soil watering 0.02% active ingredient, evaluated 4 days after infection; protective/systemic not distinguished. The method, then:
D-3: Action Against Phytophthora on Potato Plants
(§1) a) Residual-Protective Action
2-3 week old potato plants (Bintje variety) are sprayed with a spray mixture (0.02% active ingredient) prepared from a wettable powder formulation of the test compound. After 48 hours, the treated plants are infected with a sporangia suspension of the fungus. Fungus infestation is evaluated after incubation of the infected plants for 4 days at 90-100% relative humidity and 20° C.
2-3 week old potato plants (Bintje variety) are watered with a spray mixture (0.02% active ingredient based on the volume of the soil) prepared from a wettable powder formulation of the test compound. […] After 48 hours, the treated plants are infected with a sporangia suspension of the fungus. Fungus infestation is evaluated after incubation of the infected plants for 4 days at 90-100% relative humidity and 20° C. Fungal infestation is effectively controlled with compounds of Tables 1 to 37.

The test system of data set [2] is Phytophthora. The experiment in a line: D-2: Action against Phytophthora on tomato plants (residual-protective and systemic). The format is in vivo. The note with it: spray or soil watering 0.02% active ingredient, evaluated 4-5 days after infection, protective/systemic not distinguished. The method, then: D-2: Action Against Phytophthora on Tomato Plants
as §1
After a cultivation period of 3 weeks, tomato plants are sprayed with a spray mixture (0.02% active ingredient) prepared from a wettable powder formulation of the test compound. After 48 hours, the treated plants are infected with a sporangia suspension of the fungus. Fungus infestation is evaluated after incubation of the infected plants for 5 days at 90-100% relative humidity and 20° C.
After a cultivation period of 3 weeks, tomato plants are watered with a spray mixture (0.02% active ingredient based on the volume of the soil) prepared from a wettable powder formulation of the test compound. […] After 96 hours, the treated plants are infected with a sporangia suspension of the fungus. Fungus infestation is evaluated after incubation of the infected plants for 4 days at 90-100% relative humidity and 20° C.

As to `CCS(=O)(=O)N[C@H](C(=O)NCCc1ccc(OCC(C)c2ccc(F)cc2)c(OC)c1)C(C)C` (stereo partly drawn) [Compound A1.01, (S)-2-Ethanesulfonylamino-N-(2-{4-[2-(4-fluoro-phenyl)-propoxy]-3-methoxy-phenyl}-ethyl)-3-methyl-butyramide], the melting point was in the range of 107 to 111 °C. The Fungus infestation result in the data set on Plasmopara viticola is on record as “completely inhibit fungal infestation”. Further, the Fungus infestation result in the data set with Phytophthora [1] is “completely inhibit fungal infestation”. Moreover, in the data set on Phytophthora [2], the Fungus infestation result is on record as “completely inhibit fungal infestation”.
In the case of `CCS(=O)(=O)N[C@H](C(=O)NCCc1ccc(OCCCc2cccc(C(F)(F)F)c2)c(OC)c1)C(C)C`, the melting point was in the range of 119 to 120 °C.
Still for that read-out and setting: for `COc1cc(CCNC(=O)[C@@H](NS(C)(=O)=O)C(C)C)ccc1OCCCc1ccc(Cl)cc1` the value was 128 to 130 °C.
